Reference: ChEMBL document CHEMBL5543156, “Selective Elimination of Senescent Cancer Cells by Galacto-Modified PROTACs” (J Med Chem, 2024)
Calls of active or inactive are those of the source. The rule behind the calls is not given here.

What was measured:
[1] = test system: A549; assay: Induction of apoptosis in human senescent A549 cells assessed as early apoptotic cells at 1 uM incubated for 24 hrs by FITC/PI staining based flow cytometry analysis (reference value: 0.68%); assay type: functional
[2] = Toxicity in SCID mouse xenografted with human A549 cells change in body weight at 20 mg/kg, sc administered daily for 19 days; assay type: organism-based; conditions: in vivo, 456 h, time 19 day
[3] = molecular target: T1, Bromodomain-containing protein 4 (Homo sapiens, UniProt O60885); assay: Induction of BRD4 degradation in human normal (non-senescent) A549 cells at 50 to 100 nM by SA-beta-Gal staining assay; assay type: cell-based; conditions: dose 50-100 nM
[4] = molecular target: T1, Bromodomain-containing protein 4; assay: Induction of BRD4 degradation in etoposide-induced human senescent A549 cells pretreated with etoposide for 3 days followed by compound administration and measured after 15 mins by SA-beta-Gal staining assay; assay type: cell-based
[5] = test system: A549; assay: Antiproliferative activity against human senescent A549 cells assessed as reduction in cell viability incubated for 72 hrs by CCK-8 assay; assay type: functional, cell-based; conditions: A549, 72 h
[6] = test system: A549; assay: Induction of apoptosis in human senescent A549 cells assessed as necrotic cells at 1 uM incubated for 24 hrs by FITC/PI staining based flow cytometry analysis (reference value: 0.15%); assay type: functional
[7] = test system: A549; assay: Induction of apoptosis in human senescent A549 cells assessed as late apoptotic cells at 1 uM incubated for 24 hrs by FITC/PI staining based flow cytometry analysis (reference value: 12.2%); assay type: functional
[8] = test system: A549; assay: Induction of apoptosis in human senescent A549 cells assessed as viable cells at 1 uM incubated for 24 hrs by FITC/PI staining based flow cytometry analysis (reference value: 86.9%); assay type: functional; conditions: read-out: Activity
[9] = test system: A549; assay: Senolytic index, ratio of IC50 for antiproliferative activity against human normal (non-senescent) A549 cells assessed as reduction in cell viability to IC50 for antiproliferative activity against human senescent A549 cells assessed as reduction in cell viability; assay type: functional
[10] = test system: A549; assay: Antiproliferative activity against human normal (non-senescent) A549 cells assessed as reduction in cell viability incubated for 72 hrs by CCK-8 assay; assay type: functional, cell-based; conditions: A549, 72 h
[11] = test system: A549; assay: Induction of apoptosis in human normal (non-senescent) A549 cells assessed as viable cells at 1 uM incubated for 24 hrs by FITC/PI staining based flow cytometry analysis (reference value: 94.6%); assay type: functional; conditions: read-out: Activity
[12] = molecular target: T1, Bromodomain-containing protein 4; assay: Induction of BRD4 degradation in human A549 cells at 50 nM incubated for 16 hrs in presence of MG-132 by Western blot analysis; assay type: cell-based
[13] = test system: A549; assay: Induction of apoptosis in human normal (non-senescent) A549 cells assessed as necrotic cells at 1 uM incubated for 24 hrs by FITC/PI staining based flow cytometry analysis (reference value: 0.29%); assay type: functional
[14] = test system: A549; assay: Induction of apoptosis in human normal (non-senescent) A549 cells assessed as early apoptotic cells at 1 uM incubated for 24 hrs by FITC/PI staining based flow cytometry analysis (reference value: 3.14%); assay type: functional
[15] = test system: A549; assay: Antitumor activity against human A549 cells xenografted in SCID mouse assessed as tumor growth inhibition at 20 mg/kg, sc administered daily for 19 days; assay type: functional; conditions: A549, 456 h, time 19 day, read-out: TGI
[16] = test system: A549; assay: Induction of apoptosis in human normal (non-senescent) A549 cells assessed as late apoptotic cells at 1 uM incubated for 24 hrs by FITC/PI staining based flow cytometry analysis (reference value: 1.97%); assay type: functional
[17] = test system: KARPAS-299; assay: Antiproliferative activity against human senescent KARPAS-299 cells assessed as reduction in cell viability incubated for 72 hrs by CCK-8 assay; assay type: functional, cell-based; conditions: KARPAS-299, 72 h
[18] = molecular target: T2, NPM/ALK (Nucleophosmin/ALK tyrosine kinase receptor) (Homo sapiens) (UniProt Q9UM73+P06748); assay: Induction of NPM-ALK degradation in human senescent KARPAS-299 cells at 1 uM incubated for 16 hrs by Western blot analysis; assay type: cell-based
[19] = test system: KARPAS-299; assay: Senolytic index, ratio of IC50 for antiproliferative activity against human normal (non-senescent) KARPAS-299 cells assessed as reduction in cell viability to IC50 for antiproliferative activity against human senescent KARPAS-299 cells assessed as reduction in cell viability; assay type: functional
[20] = test system: KARPAS-299; assay: Antiproliferative activity against human normal (non-senescent) KARPAS-299 cells assessed as reduction in cell viability incubated for 72 hrs by CCK-8 assay; assay type: functional, cell-based; conditions: KARPAS-299, 72 h
[21] = molecular target: T2, NPM/ALK (Nucleophosmin/ALK tyrosine kinase receptor) (Homo sapiens); assay: Induction of NPM-ALK degradation in human normal (non-senescent) KARPAS-299 cells at 1 uM incubated for 16 hrs by Western blot analysis; assay type: cell-based
[22] = test system: A549; assay: Downregulation of BRD4 expression in etoposide-induced human senescent A549 cells at 50 nM incubated for 16 hrs by Proteomic analysis; assay type: functional, cell-based
[23] = Stability of the compound assessed as porcine liver esterase-mediated hydrolysis measured at 16 hrs by Real-time ultrafast liquid chromatography analysis; assay type: ADME, Sus scrofa; conditions: pig, isolated protein
[24] = test system: A549; assay: Antitumor activity against human A549 cells xenografted in SCID mouse assessed as increase in cleaved caspase-3 level in tumor at 20 mg/kg, sc administered daily for 19 days in presence of etoposide by IHC analysis; assay type: functional, organism-based; conditions: time 19.0 day
[25] = test system: A549; assay: Effect on ARGAL level in etoposide-induced human senescent A549 cells at 50 nM incubated for 16 hrs by Proteomic analysis; assay type: functional, cell-based
[26] = molecular target: T1, Bromodomain-containing protein 4; assay: Induction of BRD4 degradation in etoposide-induced human senescent U87 cells by SA-beta-Gal staining assay; assay type: cell-based
[27] = test system: A549; assay: Antitumor activity against etoposide-induced human A549 cells xenografted in SCID mouse assessed as tumor growth inhibition at 20 mg/kg, sc administered daily for 19 days; assay type: functional, organism-based; conditions: time 19.0 day
[28] = test system: A549; assay: Effect on BTBD8 level in etoposide-induced human senescent A549 cells at 50 nM incubated for 16 hrs by Proteomic analysis; assay type: functional, cell-based
[29] = Stability of the compound in fetal bovine serum incubated for 24 hrs by Real-tie ultrafast liquid chromatography analysis; assay type: ADME, cell-free, Bos taurus; conditions: cattle
[30] = molecular target: T1, Bromodomain-containing protein 4; assay: Induction of BRD4 degradation in human HeLa cells by SA-beta-Gal staining assay; assay type: cell-based
[31] = molecular target: T1, Bromodomain-containing protein 4; assay: Induction of BRD4 degradation in human U87 cells by SA-beta-Gal staining assay; assay type: cell-based
[32] = test system: A549; assay: Antitumor activity against human A549 cells xenografted in SCID mouse assessed as reduction in ki67 level in tumor at 20 mg/kg, sc administered daily for 19 days in presence of etoposide by IHC analysis; assay type: functional, organism-based; conditions: time 19.0 day
[33] = test system: A549; assay: Antitumor activity against human A549 cells xenografted in SCID mouse assessed as reduction in BRD4 level in tumor at 20 mg/kg, sc administered daily for 19 days by IHC analysis; assay type: functional, organism-based; conditions: time 19.0 day
[34] = molecular target: T1, Bromodomain-containing protein 4; assay: Induction of BRD4 degradation in etoposide-induced human senescent HeLa cells by SA-beta-Gal staining assay; assay type: cell-based
[35] = molecular target: T1, Bromodomain-containing protein 4; assay: Induction of BRD4 degradation in etoposide-induced human senescent A549 cells incubated for 16 hrs by Western blot analysis; assay type: cell-based
[36] = molecular target: T1, Bromodomain-containing protein 4; assay: Induction of BRD4 degradation in etoposide-induced human senescent A549 cells at 100 nM pretreated with etoposide for 3 days followed by compound administration and measured after 15 mins by SA-beta-Gal staining assay; assay type: cell-based
[37] = test system: A549; assay: Antitumor activity against human A549 cells xenografted in SCID mouse assessed as decrease in p21 level in tumor at 20 mg/kg, sc administered daily for 19 days in presence of etoposide by IHC analysis; assay type: functional, organism-based; conditions: time 19.0 day

T2 sequence (P06748 whole entry partner): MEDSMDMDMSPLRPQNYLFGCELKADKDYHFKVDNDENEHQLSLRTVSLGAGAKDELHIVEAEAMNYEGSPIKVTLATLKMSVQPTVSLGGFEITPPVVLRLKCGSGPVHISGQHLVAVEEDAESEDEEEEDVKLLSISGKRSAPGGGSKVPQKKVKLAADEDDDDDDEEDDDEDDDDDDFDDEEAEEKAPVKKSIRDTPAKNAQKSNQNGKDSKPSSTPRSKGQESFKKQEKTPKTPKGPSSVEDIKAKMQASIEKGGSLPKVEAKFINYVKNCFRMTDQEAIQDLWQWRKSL
T2 sequence (Q9UM73 19-1620 limits assumed): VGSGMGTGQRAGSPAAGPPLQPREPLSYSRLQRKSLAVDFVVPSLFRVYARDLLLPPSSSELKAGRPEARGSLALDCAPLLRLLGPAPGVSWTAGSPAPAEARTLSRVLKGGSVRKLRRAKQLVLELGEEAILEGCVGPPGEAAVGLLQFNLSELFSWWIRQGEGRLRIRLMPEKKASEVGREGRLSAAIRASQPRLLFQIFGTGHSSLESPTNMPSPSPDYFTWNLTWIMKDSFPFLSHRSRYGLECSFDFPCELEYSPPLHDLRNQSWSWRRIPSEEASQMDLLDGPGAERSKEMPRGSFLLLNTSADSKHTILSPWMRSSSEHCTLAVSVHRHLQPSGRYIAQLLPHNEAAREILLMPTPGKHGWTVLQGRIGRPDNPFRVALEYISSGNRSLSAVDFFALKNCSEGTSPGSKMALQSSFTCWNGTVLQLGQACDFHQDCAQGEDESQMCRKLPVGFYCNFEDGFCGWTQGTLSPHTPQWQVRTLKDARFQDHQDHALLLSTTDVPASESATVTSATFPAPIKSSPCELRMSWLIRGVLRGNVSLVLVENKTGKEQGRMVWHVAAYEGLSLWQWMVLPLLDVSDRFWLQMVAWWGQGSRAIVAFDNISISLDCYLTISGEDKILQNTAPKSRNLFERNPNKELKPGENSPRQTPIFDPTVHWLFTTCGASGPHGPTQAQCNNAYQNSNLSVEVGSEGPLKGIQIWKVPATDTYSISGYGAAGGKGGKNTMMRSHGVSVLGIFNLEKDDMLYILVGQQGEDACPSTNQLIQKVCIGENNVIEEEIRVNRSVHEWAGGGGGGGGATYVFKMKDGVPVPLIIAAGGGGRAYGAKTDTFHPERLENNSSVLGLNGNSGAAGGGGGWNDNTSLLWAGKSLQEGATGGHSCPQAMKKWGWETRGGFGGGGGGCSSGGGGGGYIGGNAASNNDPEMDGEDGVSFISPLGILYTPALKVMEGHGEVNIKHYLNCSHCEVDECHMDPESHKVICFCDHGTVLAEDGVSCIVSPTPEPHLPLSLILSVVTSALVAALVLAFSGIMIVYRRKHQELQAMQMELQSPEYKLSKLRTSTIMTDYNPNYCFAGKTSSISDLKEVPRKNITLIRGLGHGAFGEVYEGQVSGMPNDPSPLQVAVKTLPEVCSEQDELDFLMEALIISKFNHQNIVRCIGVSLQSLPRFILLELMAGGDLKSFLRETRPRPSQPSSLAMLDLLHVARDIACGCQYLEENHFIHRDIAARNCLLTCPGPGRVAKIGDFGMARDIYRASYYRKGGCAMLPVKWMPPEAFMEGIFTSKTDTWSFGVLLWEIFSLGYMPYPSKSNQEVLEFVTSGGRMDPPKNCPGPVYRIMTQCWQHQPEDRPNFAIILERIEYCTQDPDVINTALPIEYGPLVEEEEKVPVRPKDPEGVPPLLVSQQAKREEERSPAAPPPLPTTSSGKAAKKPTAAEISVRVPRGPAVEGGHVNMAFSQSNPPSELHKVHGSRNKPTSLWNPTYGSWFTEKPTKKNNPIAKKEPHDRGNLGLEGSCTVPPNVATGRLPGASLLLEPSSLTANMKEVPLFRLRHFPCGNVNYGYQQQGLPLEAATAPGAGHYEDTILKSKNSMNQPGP

Row | Compound | Activity [1] [%] | Activity [2] | Activity [4] | IC50 [5] [µM] | Activity [6] [%] | Activity [7] [%] | viability at 1 µM [8] [%] | Ratio IC50 [9] | IC50 [10] [µM] | viability at 1 µM [11] [%] | Activity [12] | Activity [13] [%] | Activity [14] [%] | inhibition in vivo at 20 mg/kg [15] [%] | Activity [16] [%] | IC50 [17] [µM] | Activity [18] | Ratio IC50 [19] | IC50 [20] [µM] | further results
1 | Cc1ncsc1-c1ccc([C@H](C)NC(=O)[C@@H]2C[C@@H](O)CN2C(=O)[C@@H](NC(=O)COCCCOCCNC(=O)C[C@@H]2N=C(c3ccc(Cl)cc3)c3c(sc(C)c3C)-n3c(C)nnc32)C(C)(C)C)cc1 | 17 | Non-Toxic | Active | 0.603 | 0.09 | 14.2 | 68.7 | 0.59 | 0.64 | 72.2 | Active | 0.98 | 20.1 | 74 | 6.76 | – | – | – | – | Activity [3]: Active
2 | Cc1cc(Nc2ncc(Cl)c(Nc3ccccc3S(=O)(=O)C(C)C)n2)c(OC(C)C)cc1C1CCN(C(=O)CCCC(=O)N[C@H](C(=O)N2C[C@H](O)C[C@H]2C(=O)N[C@@H](C)c2ccc(-c3scnc3C)cc2)C(C)(C)C)CC1 | – | – | – | – | – | – | – | – | – | – | – | – | – | – | – | 0.232 | Active | 1.59 | 0.369 | –
3 | CC(=O)OC[C@H]1O[C@@H](Oc2ccc(COC(=O)O[C@@H]3C[C@@H](C(=O)N[C@@H](C)c4ccc(-c5scnc5C)cc4)N(C(=O)[C@@H](NC(=O)CCCC(=O)N4CCC(c5cc(OC(C)C)c(Nc6ncc(Cl)c(Nc7ccccc7S(=O)(=O)C(C)C)n6)cc5C)CC4)C(C)(C)C)C3)cc2)[C@H](OC(C)=O)[C@@H](OC(C)=O)[C@H]1OC(C)=O | – | – | – | – | – | – | – | – | – | – | – | – | – | – | – | 0.455 | Active | 4.75 | 2.16 | Activity [21]: inactive
4 | CC(=O)OC[C@H]1O[C@@H](Oc2ccc(COC(=O)O[C@@H]3C[C@@H](C(=O)N[C@@H](C)c4ccc(-c5scnc5C)cc4)N(C(=O)[C@@H](NC(=O)COCCCOCCNC(=O)C[C@@H]4N=C(c5ccc(Cl)cc5)c5c(sc(C)c5C)-n5c(C)nnc54)C(C)(C)C)C3)cc2)[C@H](OC(C)=O)[C@@H](OC(C)=O)[C@H]1OC(C)=O | 16.7 | Non-Toxic | Active | 0.354 | 0.1 | 14.8 | 68.3 | 5.17 | 3.29 | 86.5 | Active | 0.68 | 8.07 | 80 | 4.72 | – | – | – | – | Activity [22]: Active; Stability [23]: Stable; Activity [24]: Active; Activity [25]: Active; Activity [26]: Active; TGI [27]: Active; Activity [28]: Active; Stability [29]: Stable; Activity [30]: Active; Activity [31]: Active; Activity [32]: Active; Activity [33]: Active; Activity [34]: Active; DC50 [35]: 0.0183 µM; Activity [36]: Active; Activity [37]: Active
